From US9951372B2, “Compounds and methods for assaying redox state of metabolically active cells and methods for measuring NAD(P)/NAD(P)H” (PROMEGA CORPORATION, priority 2011, dated 2018)
Like-named read-outs stand apart in the source and are kept apart here.

Experiments:
NAD biosynthesis pathway = experiment: Monitoring inhibition of NAD biosynthesis; format: cell-based; details: 48 hours of treatment; several cell lines; detection with PBI 4312
Description: Cells were plated at 7.5×10^3 cells/12.5 ul into wells of a 384-well plates. The cells were plated in full media containing 10% FBS (PC3 and A549 cells in F12K; Hela, MD-AMB and HET 116 cells in DMEM without pyruvate; HepG2 cells in E-MEM and Jurkat cells in RPMI). […] The cells were placed in a CO2 dependent incubator. […] Promega Cat. No V8920) was added to each well. The reaction was incubated for 30 minutes at room temperature, and luminescence measured using a Tecan plate luminometer. The data are shown as % inhibition compared to control (no inhibitor) and are plotted using the sigmoidal dose-response, variable slope model supplied with SigmaPlot 11.0 software. A signal-to-background ratio (S/B) calculated between control cells and cells treated with the highest FK866 concentration.

rat diaphorase = target: T1, rat diaphorase (Rattus norvegicus, UniProt P05982); format: biochemical; details: for Fluorescence time course, Rat: 10 uM NADH
T1 construct: purchased Sigma
T1 sequence (P05982 2-274 limits assumed): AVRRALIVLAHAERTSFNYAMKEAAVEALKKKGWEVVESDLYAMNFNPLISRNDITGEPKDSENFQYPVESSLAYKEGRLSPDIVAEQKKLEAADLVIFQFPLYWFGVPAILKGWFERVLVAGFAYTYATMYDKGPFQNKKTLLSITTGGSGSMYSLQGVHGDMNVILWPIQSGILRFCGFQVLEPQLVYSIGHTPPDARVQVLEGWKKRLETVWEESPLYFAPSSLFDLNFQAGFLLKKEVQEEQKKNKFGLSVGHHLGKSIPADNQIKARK

HEK293 cells = experiment: Measuring metabolically active cells with quinone fluorescein derivatives; format: cell-based; details: HEK293 cell dilutions; 60 minutes; 480ex/530em
Description: i. Two-fold serial dilutions of HEK293 cells were prepared in full DMEM media, and 100 μl per well were transferred into wells of 96-well plates. Compounds PBI 4440 and 4412 were diluted in full DMEM media to make 20 μM and 10 μM stocks, respectively. 100 μl of the prepared compound stocks were added to the cells, and the cells were incubated for 60 minutes in a 37° C., 5% CO2 incubator. Following incubation, the cells were removed from incubator, and fluorescence measured with Tecan Infinite 500 at 480ex/Em530em wavelength.

HeLa cells = experiment: Fluorescent imaging of live cells; format: cell-based; details: 10 μM substrate
Description: HeLa cells were plated at 40,000 cell/well into wells of an 8-well chambered coverslip and incubated at 37° C.+5% CO2. The media (DMEM) was replaced with warm complete media (with 10% FBS) containing 10 μM PBI-4412, 4413, 4440 or 4441. Cells were then transferred to a confocal microscope for imaging using 10% λ488 nm laser power (4412, 4413, and 4441) or 5% laser power (4440). All images (FIGS. 6a-d) are at 30× magnification.

Clostridium diaphorase = experiment: Fluorescent NADH detection assay, Clostridium diaphorase; format: biochemical; details: for FLUs: 1 u/ml Clostridium diaphorase; for Fluorescence time course, Clostridium: 10 uM NADH
Description: Each fluorescent substrate (PBI-4412, 4413, 4440, and 4441) was incubated at 920 μM with 0 μM or 10 μM NADH (Sigma) or a titration of NADH (Table 8) and 1 u/ml rat diaphorase (Sigma) or 1 u/ml Clostridium diaphorase (Sigma) in a volume of 100 μl in 50 mM Tris pH 7.5. Single reactions were prepared in the wells of a 96-well black plate at room temperature. Fluorescence was monitored over the course of two hours at excitation and emission wavelengths of 485 and 527, respectively, using a fluorescence plate reader. […] Table 7 and FIGS. 24a-b show the reaction time course with each substrate with 10 uM NADH. Table 8 and FIG. 25 show the NADH titration at 60 minutes with PBI-4440 and 4412 with rat diaphorase.

[1] = 0 μM NADH, 60 min, 1 u/ml rat diaphorase
[2] = 10 μM NADH, 60 min, 1 u/ml rat diaphorase, substrate 920 μM
[3] = NADH 0 μM, 60 minutes, rat diaphorase
[4] = NADH 1.25 μM, 60 minutes, rat diaphorase
[5] = NADH 2.5 μM, 60 minutes, rat diaphorase
[6] = NADH 5 μM, 60 minutes, rat diaphorase
[7] = NADH 10 μM, 60 minutes, rat diaphorase
[8] = NADH 20 μM, 60 minutes, rat diaphorase
[9] = NADH 40 μM, 60 minutes, rat diaphorase
[10] = NADH 80 μM, 60 minutes, rat diaphorase
[11] = 10 μM NADH, 60 min, substrate 920 μM

O=C(/C=C/c1cccnc1)NCCCCC1CCN(C(=O)c2ccccc2)CC1 [FK866]
effect on cellular NAD levels (NAD biosynthesis pathway): decrease in NAD levels

CC1=CC(=O)C(C)=C(C(C)(C)CC(=O)N(C)CCN(C)C(=O)Oc2ccc3c(c2)Oc2cc(O)ccc2C32OC(=O)c3ccccc32)C1=O (centres unmarked) [PBI 4412, Mono-quinone trimethyllock diamine fluorescein]
FLUs (rat diaphorase; [1]): 3772 FLUs | FLUs (rat diaphorase; [2]): 170571 FLUs | Fluorescence time course, Rat (rat diaphorase; 2 min): 10099 FLUs | Fluorescence time course, Rat (rat diaphorase; 4 min): 24171 FLUs | Fluorescence time course, Rat (rat diaphorase; 5 min): 33247 FLUs | Fluorescence time course, Rat (rat diaphorase; 10 min): 62502 FLUs | Fluorescence time course, Rat (rat diaphorase; 20 min): 106834 FLUs | Fluorescence time course, Rat (rat diaphorase; 30 min): 133278 FLUs | Fluorescence time course, Rat (rat diaphorase; 40 min): 151941 FLUs | Fluorescence time course, Rat (rat diaphorase; 50 min): 162636 FLUs | Fluorescence time course, Rat (rat diaphorase; 60 min): 170571 FLUs | Fluorescence time course, Rat (rat diaphorase; 70 min): 175380 FLUs | Fluorescence time course, Rat (rat diaphorase; 80 min): 177516 FLUs | Fluorescence time course, Rat (rat diaphorase; 90 min): 178423 FLUs | Fluorescence time course, Rat (rat diaphorase; 100 min): 180027 FLUs | Fluorescence time course, Rat (rat diaphorase; 110 min): 182051 FLUs | Fluorescence time course, Rat (rat diaphorase; 120 min): 181077 FLUs | FLUs (rat diaphorase; [3]): 3772 FLUs | FLUs (rat diaphorase; [4]): 26228 FLUs | FLUs (rat diaphorase; [5]): 51005 FLUs | FLUs (rat diaphorase; [6]): 97995 FLUs | FLUs (rat diaphorase; [7]): 170571 FLUs | FLUs (rat diaphorase; [8]): 183286 FLUs | FLUs (rat diaphorase; [9]): 185532 FLUs | FLUs (rat diaphorase; [10]): 183372 FLUs | relationship of fluorescence to cell number (HEK293 cells): linear correlation between cell number and fluorescence | reduction of substrate in live cells (confocal images) (HeLa cells): only reduced once inside cells | FLUs (Clostridium diaphorase; 0 μM NADH, 60 min): 3940 FLUs | FLUs (Clostridium diaphorase; [11]): 125352 FLUs | Fluorescence time course, Clostridium (Clostridium diaphorase; 2 min): 9933 FLUs | Fluorescence time course, Clostridium (Clostridium diaphorase; 4 min): 24883 FLUs | Fluorescence time course, Clostridium (Clostridium diaphorase; 5 min): 33881 FLUs | Fluorescence time course, Clostridium (Clostridium diaphorase; 10 min): 60458 FLUs | Fluorescence time course, Clostridium (Clostridium diaphorase; 20 min): 95260 FLUs | Fluorescence time course, Clostridium (Clostridium diaphorase; 30 min): 112465 FLUs | Fluorescence time course, Clostridium (Clostridium diaphorase; 40 min): 120688 FLUs | Fluorescence time course, Clostridium (Clostridium diaphorase; 50 min): 123934 FLUs | Fluorescence time course, Clostridium (Clostridium diaphorase; 60 min): 125352 FLUs | Fluorescence time course, Clostridium (Clostridium diaphorase; 70 min): 126364 FLUs | Fluorescence time course, Clostridium (Clostridium diaphorase; 80 min): 125242 FLUs | Fluorescence time course, Clostridium (Clostridium diaphorase; 90 min): 124786 FLUs | Fluorescence time course, Clostridium (Clostridium diaphorase; 100 min): 124434 FLUs | Fluorescence time course, Clostridium (Clostridium diaphorase; 110 min): 124460 FLUs | Fluorescence time course, Clostridium (Clostridium diaphorase; 120 min): 124182 FLUs

CC1=C(C)C(=O)C(C(C)(C)CC(=O)N(C)CCN(C)C(=O)Oc2ccc3c(c2)Oc2cc(O)ccc2C32OC(=O)c3ccccc32)=C(C)C1=O (centres unmarked) [PBI 4440, Mono-quinone trimethyllock diamine fluorescein]
FLUs (rat diaphorase; [1]): 2922 FLUs | FLUs (rat diaphorase; [2]): 180909 FLUs | Fluorescence time course, Rat (rat diaphorase; 2 min): 6473 FLUs | Fluorescence time course, Rat (rat diaphorase; 4 min): 18626 FLUs | Fluorescence time course, Rat (rat diaphorase; 5 min): 28997 FLUs | Fluorescence time course, Rat (rat diaphorase; 10 min): 73216 FLUs | Fluorescence time course, Rat (rat diaphorase; 20 min): 133999 FLUs | Fluorescence time course, Rat (rat diaphorase; 30 min): 161355 FLUs | Fluorescence time course, Rat (rat diaphorase; 40 min): 173345 FLUs | Fluorescence time course, Rat (rat diaphorase; 50 min): 178374 FLUs | Fluorescence time course, Rat (rat diaphorase; 60 min): 180909 FLUs | Fluorescence time course, Rat (rat diaphorase; 70 min): 182618 FLUs | Fluorescence time course, Rat (rat diaphorase; 80 min): 182416 FLUs | Fluorescence time course, Rat (rat diaphorase; 90 min): 182263 FLUs | Fluorescence time course, Rat (rat diaphorase; 100 min): 181996 FLUs | Fluorescence time course, Rat (rat diaphorase; 110 min): 182253 FLUs | Fluorescence time course, Rat (rat diaphorase; 120 min): 182132 FLUs | FLUs (rat diaphorase; [3]): 2922 FLUs | FLUs (rat diaphorase; [4]): 24788 FLUs | FLUs (rat diaphorase; [5]): 50387 FLUs | FLUs (rat diaphorase; [6]): 99331 FLUs | FLUs (rat diaphorase; [7]): 180909 FLUs | FLUs (rat diaphorase; [8]): 309004 FLUs | FLUs (rat diaphorase; [9]): 304293 FLUs | FLUs (rat diaphorase; [10]): 305861 FLUs | relationship of fluorescence to cell number (HEK293 cells): linear correlation between cell number and fluorescence | reduction of substrate in live cells (confocal images) (HeLa cells): only reduced once inside cells | FLUs (Clostridium diaphorase; 0 μM NADH, 60 min): 3050 FLUs | FLUs (Clostridium diaphorase; [11]): 43362 FLUs | Fluorescence time course, Clostridium (Clostridium diaphorase; 2 min): 3611 FLUs | Fluorescence time course, Clostridium (Clostridium diaphorase; 4 min): 7197 FLUs | Fluorescence time course, Clostridium (Clostridium diaphorase; 5 min): 10142 FLUs | Fluorescence time course, Clostridium (Clostridium diaphorase; 10 min): 20624 FLUs | Fluorescence time course, Clostridium (Clostridium diaphorase; 20 min): 33781 FLUs | Fluorescence time course, Clostridium (Clostridium diaphorase; 30 min): 39807 FLUs | Fluorescence time course, Clostridium (Clostridium diaphorase; 40 min): 42268 FLUs | Fluorescence time course, Clostridium (Clostridium diaphorase; 50 min): 43000 FLUs | Fluorescence time course, Clostridium (Clostridium diaphorase; 60 min): 43362 FLUs | Fluorescence time course, Clostridium (Clostridium diaphorase; 70 min): 43750 FLUs | Fluorescence time course, Clostridium (Clostridium diaphorase; 80 min): 43425 FLUs | Fluorescence time course, Clostridium (Clostridium diaphorase; 90 min): 43468 FLUs | Fluorescence time course, Clostridium (Clostridium diaphorase; 100 min): 43296 FLUs | Fluorescence time course, Clostridium (Clostridium diaphorase; 110 min): 43005 FLUs | Fluorescence time course, Clostridium (Clostridium diaphorase; 120 min): 43150 FLUs
